{"source": "patent US20230079819A1", "about": "“COMPOUNDS AND USES THEREOF” (Foghorn Therapeutics Inc., priority 2019, published 2023)", "key": {"[1]": {"molecular_target": "T1, BRM (Homo sapiens, UniProt P51531)", "T1 construct": "made in house; host or cells: High Five insect cells", "T1 sequence (P51531 whole entry)": "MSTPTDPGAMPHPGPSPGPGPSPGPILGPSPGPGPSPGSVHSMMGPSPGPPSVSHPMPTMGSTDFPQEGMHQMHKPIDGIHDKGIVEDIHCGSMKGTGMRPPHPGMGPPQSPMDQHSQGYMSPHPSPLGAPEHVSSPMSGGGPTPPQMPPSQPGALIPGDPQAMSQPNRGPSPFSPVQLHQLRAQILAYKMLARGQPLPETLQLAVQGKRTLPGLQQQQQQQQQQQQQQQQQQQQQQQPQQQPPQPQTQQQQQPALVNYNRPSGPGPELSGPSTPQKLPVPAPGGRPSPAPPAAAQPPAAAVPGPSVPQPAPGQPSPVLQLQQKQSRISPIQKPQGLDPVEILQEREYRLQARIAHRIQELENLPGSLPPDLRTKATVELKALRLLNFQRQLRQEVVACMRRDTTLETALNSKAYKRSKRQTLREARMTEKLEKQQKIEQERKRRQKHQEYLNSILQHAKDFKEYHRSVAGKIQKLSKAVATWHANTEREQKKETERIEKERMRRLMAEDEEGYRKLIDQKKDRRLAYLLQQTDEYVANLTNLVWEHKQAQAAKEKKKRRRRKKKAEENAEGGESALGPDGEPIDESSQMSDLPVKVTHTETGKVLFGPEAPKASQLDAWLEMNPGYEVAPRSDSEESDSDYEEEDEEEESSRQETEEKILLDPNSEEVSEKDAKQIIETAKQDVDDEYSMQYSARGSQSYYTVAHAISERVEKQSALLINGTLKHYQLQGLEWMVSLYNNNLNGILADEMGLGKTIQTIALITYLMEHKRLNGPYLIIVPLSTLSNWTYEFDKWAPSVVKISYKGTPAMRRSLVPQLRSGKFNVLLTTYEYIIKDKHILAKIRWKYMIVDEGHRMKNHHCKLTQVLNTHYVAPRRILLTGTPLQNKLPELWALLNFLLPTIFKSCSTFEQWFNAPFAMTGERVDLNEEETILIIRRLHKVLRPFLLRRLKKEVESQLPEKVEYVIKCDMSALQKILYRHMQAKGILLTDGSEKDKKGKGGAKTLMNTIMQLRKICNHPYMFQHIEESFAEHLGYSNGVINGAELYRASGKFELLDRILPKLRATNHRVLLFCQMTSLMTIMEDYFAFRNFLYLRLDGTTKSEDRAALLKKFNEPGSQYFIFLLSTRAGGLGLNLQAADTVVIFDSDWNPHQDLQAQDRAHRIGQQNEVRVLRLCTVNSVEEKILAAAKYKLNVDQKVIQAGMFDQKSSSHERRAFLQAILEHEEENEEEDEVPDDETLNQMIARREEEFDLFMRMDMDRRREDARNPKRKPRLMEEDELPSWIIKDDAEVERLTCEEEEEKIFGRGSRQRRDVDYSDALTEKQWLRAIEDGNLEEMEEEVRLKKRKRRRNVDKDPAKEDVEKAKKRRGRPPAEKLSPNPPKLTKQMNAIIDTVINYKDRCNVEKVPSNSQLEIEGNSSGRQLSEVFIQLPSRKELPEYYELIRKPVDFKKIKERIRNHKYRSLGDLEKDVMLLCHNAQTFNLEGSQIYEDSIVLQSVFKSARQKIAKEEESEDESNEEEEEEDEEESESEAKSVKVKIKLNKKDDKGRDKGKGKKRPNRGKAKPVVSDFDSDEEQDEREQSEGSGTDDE", "assay": "ATPase catalytic activity of BRM, ADP-Glo in vitro biochemical assay", "conditions": "ATPase catalytic activity, 30 nM BRM, 400 μM ATP, read-out: BRM IP50 (μM)*"}, "[2]": {"molecular_target": "T2, BRG-1 (Homo sapiens, UniProt P51532)", "T2 construct": "made in house; host or cells: High Five insect cells", "T2 sequence (P51532 whole entry)": "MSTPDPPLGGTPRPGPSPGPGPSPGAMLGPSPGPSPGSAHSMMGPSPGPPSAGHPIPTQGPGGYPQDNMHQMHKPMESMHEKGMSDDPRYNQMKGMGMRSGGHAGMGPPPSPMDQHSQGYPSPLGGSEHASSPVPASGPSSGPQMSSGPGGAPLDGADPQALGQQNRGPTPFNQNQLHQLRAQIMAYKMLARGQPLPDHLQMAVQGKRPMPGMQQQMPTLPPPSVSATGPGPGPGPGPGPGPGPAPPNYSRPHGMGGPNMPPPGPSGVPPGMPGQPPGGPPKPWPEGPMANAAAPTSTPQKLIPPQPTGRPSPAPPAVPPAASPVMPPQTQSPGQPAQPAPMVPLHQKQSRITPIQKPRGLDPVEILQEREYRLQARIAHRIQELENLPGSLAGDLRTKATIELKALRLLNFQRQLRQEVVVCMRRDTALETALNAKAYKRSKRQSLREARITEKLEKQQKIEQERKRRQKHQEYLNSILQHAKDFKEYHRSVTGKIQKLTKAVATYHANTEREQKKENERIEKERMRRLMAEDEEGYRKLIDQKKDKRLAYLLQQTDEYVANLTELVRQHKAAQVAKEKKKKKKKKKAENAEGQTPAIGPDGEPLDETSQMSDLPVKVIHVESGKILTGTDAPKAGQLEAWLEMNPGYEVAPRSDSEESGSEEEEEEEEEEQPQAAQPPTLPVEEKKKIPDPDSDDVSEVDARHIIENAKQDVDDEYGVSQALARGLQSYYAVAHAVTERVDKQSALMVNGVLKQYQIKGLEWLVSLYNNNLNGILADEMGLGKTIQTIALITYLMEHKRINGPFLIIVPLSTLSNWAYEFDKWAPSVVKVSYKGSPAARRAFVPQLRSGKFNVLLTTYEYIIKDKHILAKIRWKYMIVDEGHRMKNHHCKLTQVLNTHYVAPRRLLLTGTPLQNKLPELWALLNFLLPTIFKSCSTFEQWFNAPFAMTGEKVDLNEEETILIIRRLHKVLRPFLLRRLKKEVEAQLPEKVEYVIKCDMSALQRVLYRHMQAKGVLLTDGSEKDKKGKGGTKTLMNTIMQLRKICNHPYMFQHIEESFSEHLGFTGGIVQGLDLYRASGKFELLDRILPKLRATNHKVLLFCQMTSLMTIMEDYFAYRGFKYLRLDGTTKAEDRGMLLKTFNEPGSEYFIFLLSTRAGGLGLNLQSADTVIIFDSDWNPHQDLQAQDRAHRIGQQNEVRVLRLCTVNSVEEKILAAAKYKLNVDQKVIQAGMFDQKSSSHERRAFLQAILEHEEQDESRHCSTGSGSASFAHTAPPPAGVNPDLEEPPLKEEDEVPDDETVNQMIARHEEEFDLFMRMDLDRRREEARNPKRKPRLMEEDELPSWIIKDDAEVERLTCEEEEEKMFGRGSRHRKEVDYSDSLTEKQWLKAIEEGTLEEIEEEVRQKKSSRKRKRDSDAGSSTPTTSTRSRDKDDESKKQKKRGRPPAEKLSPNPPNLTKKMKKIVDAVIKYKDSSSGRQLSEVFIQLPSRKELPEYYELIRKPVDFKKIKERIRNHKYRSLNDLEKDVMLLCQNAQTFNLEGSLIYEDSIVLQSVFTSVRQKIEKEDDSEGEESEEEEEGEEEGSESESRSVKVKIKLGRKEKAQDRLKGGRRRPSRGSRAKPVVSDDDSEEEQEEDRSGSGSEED", "assay": "ATPase catalytic activity of BRG-1, ADP-Glo in vitro biochemical assay", "conditions": "ATPase catalytic activity, 30 nM BRG-1, 400 μM ATP, read-out: BRG1 IP50 (μM)*"}}, "data": [{"smiles": "CC(C)(C)n1ccc(C(=O)NCC(=O)Nc2nc(-c3cccc(COC4CCOCC4)c3)cs2)c1", "note": "[Compound 125, 1-(tert-butyl)-N-(2-oxo-2-((4-(3-(((tetrahydro-2H-pyran-4-yl)oxy)methyl)phenyl)thiazol-2-yl)amino)ethyl)-1H-pyrrole-3-carboxamide]", "values": [{"measurement": "IC50", "setting": "[1]", "value": "> 0.01", "unit": "µM"}, {"measurement": "IC50", "setting": "[2]", "value": "> 0.01", "unit": "µM"}]}, {"smiles": "CC(OC1CCOCC1)c1cccc(-c2csc(NC(=O)CNC(=O)c3ccn(C(C)(C)C)c3)n2)c1", "note": "(stereo not shown) [Compound 126, 1-(tert-butyl)-N-(2-oxo-2-((4-(3-(1-((tetrahydro-2H-pyran-4-yl)oxy)ethyl)phenyl)thiazol-2-yl)amino)ethyl)-1H-pyrrole-3-carboxamide]", "values": [{"measurement": "IC50", "setting": "[1]", "value": "> 0.01", "unit": "µM"}, {"measurement": "IC50", "setting": "[2]", "value": "> 0.1", "unit": "µM"}]}, {"smiles": "CN1CCC(OCc2cccc(-c3csc(NC(=O)CNC(=O)c4ccn(C(C)(C)C)c4)n3)c2)CC1", "note": "[Compound 127, 1-(tert-butyl)-N-(2-((4-(3-(((1-methylpiperidin-4-yl)oxy)methyl)phenyl)thiazol-2-yl)amino)-2-oxoethyl)-1H-pyrrole-3-carboxamide]", "values": [{"measurement": "IC50", "setting": "[1]", "value": "> 0.1", "unit": "µM"}, {"measurement": "IC50", "setting": "[2]", "value": "> 0.1", "unit": "µM"}]}, {"smiles": "CN1CCC(OCc2cccc(-c3csc(NC(=O)CNC(=O)c4ccn(C(C)(C)C)c4)n3)c2)C(F)(F)C1", "note": "(stereo not shown) [Compound 128, 1-(tert-butyl)-N-(2-((4-(3-(((3,3-difluoro-1-methylpiperidin-4-yl)oxy)methyl)phenyl)thiazol-2-yl)amino)-2-oxoethyl)-1H-pyrrole-3-carboxamide]", "values": [{"measurement": "IC50", "setting": "[1]", "value": "> 0.1", "unit": "µM"}, {"measurement": "IC50", "setting": "[2]", "value": "> 0.1", "unit": "µM"}]}, {"smiles": "CC(C)(C)n1ccc(C(=O)NCC(=O)Nc2nc(-c3cccc(COC4CCOC4)c3)cs2)c1", "note": "(stereo not shown) [Compound 129, 1-(tert-butyl)-N-(2-oxo-2-((4-(3-(((tetrahydrofuran-3-yl)oxy)methyl)phenyl)thiazol-2-yl)amino)ethyl)-1H-pyrrole-3-carboxamide]", "values": [{"measurement": "IC50", "setting": "[1]", "value": "> 0.01", "unit": "µM"}, {"measurement": "IC50", "setting": "[2]", "value": "> 0.01", "unit": "µM"}]}, {"smiles": "CN1CCc2cc(-c3csc(NC(=O)CNC(=O)c4ccn(S(C)(=O)=O)c4)n3)ccc2C1", "note": "[Compound 130, N-(2-((4-(2-methyl-1,2,3,4-tetrahydroisoquinolin-6-yl)thiazol-2-yl)amino)-2-oxoethyl)-1-(methylsulfonyl)-1H-pyrrole-3-carboxamide]", "values": [{"measurement": "IC50", "setting": "[1]", "value": "> 0.1", "unit": "µM"}, {"measurement": "IC50", "setting": "[2]", "value": "> 0.1", "unit": "µM"}]}, {"smiles": "Cn1ncc2ccc(-c3csc(NC(=O)CNC(=O)c4ccn(C(C)(C)C)c4)n3)cc21", "note": "[Compound 131, 1-(tert-butyl)-N-(2-((4-(1-methyl-1H-indazol-6-yl)thiazol-2-yl)amino)-2-oxoethyl)-1H-pyrrole-3-carboxamide]", "values": [{"measurement": "IC50", "setting": "[1]", "value": "> 0.01", "unit": "µM"}, {"measurement": "IC50", "setting": "[2]", "value": "> 0.1", "unit": "µM"}]}, {"smiles": "Cn1ncc2ccc(-c3csc(NC(=O)CNC(=O)c4ccn(S(C)(=O)=O)c4)n3)cc21", "note": "[Compound 132, N-(2-((4-(1-methyl-1H-indazol-6-yl)thiazol-2-yl)amino)-2-oxoethyl)-1-(methylsulfonyl)-1H-pyrrole-3-carboxamide]", "values": [{"measurement": "IC50", "setting": "[1]", "value": "> 0.01", "unit": "µM"}, {"measurement": "IC50", "setting": "[2]", "value": "> 0.01", "unit": "µM"}]}, {"smiles": "Cn1c(=O)ccc2ccc(-c3csc(NC(=O)CNC(=O)c4ccn(C(C)(C)C)c4)n3)cc21", "note": "[Compound 133, 1-(tert-butyl)-N-(2-((4-(1-methyl-2-oxo-1,2-dihydroquinolin-7-yl)thiazol-2-yl)amino)-2-oxoethyl)-1H-pyrrole-3-carboxamide]", "values": [{"measurement": "IC50", "setting": "[1]", "value": "> 0.1", "unit": "µM"}, {"measurement": "IC50", "setting": "[2]", "value": "> 0.1", "unit": "µM"}]}, {"smiles": "CN1Cc2ccc(-c3csc(NC(=O)CNC(=O)c4ccn(C(C)(C)C)c4)n3)cc2N(C)C1=O", "note": "[Compound 134, 1-(tert-butyl)-N-(2-((4-(1,3-dimethyl-2-oxo-1,2,3,4-tetrahydroquinazolin-7-yl)thiazol-2-yl)amino)-2-oxoethyl)-1H-pyrrole-3-carboxamide]", "values": [{"measurement": "IC50", "setting": "[1]", "value": "> 0.01", "unit": "µM"}, {"measurement": "IC50", "setting": "[2]", "value": "> 0.1", "unit": "µM"}]}, {"smiles": "CC(C)(C)n1ccc(C(=O)NCC(=O)Nc2nc(-c3cccc(CO[C@H]4CCOC4)c3)cs2)c1", "note": "[Compound 135, (S)-1-(tert-butyl)-N-(2-oxo-2-((4-(3-(((tetrahydrofuran-3-yl)oxy)methyl)phenyl)thiazol-2-yl)amino)ethyl)-1H-pyrrole-3-carboxamide]", "values": [{"measurement": "IC50", "setting": "[1]", "value": "> 0.01", "unit": "µM"}, {"measurement": "IC50", "setting": "[2]", "value": "> 0.01", "unit": "µM"}]}, {"smiles": "CC(C)(C)n1ccc(C(=O)NCC(=O)Nc2nc(-c3cccc(CO[C@@H]4CCOC4)c3)cs2)c1", "note": "[Compound 136, (R)-1-(tert-butyl)-N-(2-oxo-2-((4-(3-(((tetrahydrofuran-3-yl)oxy)methyl)phenyl)thiazol-2-yl)amino)ethyl)-1H-pyrrole-3-carboxamide]", "values": [{"measurement": "IC50", "setting": "[1]", "value": "> 0.01", "unit": "µM"}, {"measurement": "IC50", "setting": "[2]", "value": "> 0.01", "unit": "µM"}]}, {"smiles": "CN1CCc2ccc(-c3csc(NC(=O)CNC(=O)c4ccn(S(C)(=O)=O)c4)n3)cc2C1=O", "note": "[Compound 137, N-(2-((4-(2-methyl-1-oxo-1,2,3,4-tetrahydroisoquinolin-7-yl)thiazol-2-yl)amino)-2-oxoethyl)-1-(methylsulfonyl)-1H-pyrrole-3-carboxamide]", "values": [{"measurement": "IC50", "setting": "[1]", "value": "> 0.01", "unit": "µM"}, {"measurement": "IC50", "setting": "[2]", "value": "< 0.01", "unit": "µM"}]}, {"smiles": "CS(=O)(=O)n1ccc(C(=O)NCC(=O)Nc2nc(-c3cccc(C4(N)CCOCC4)c3)cs2)c1", "note": "[Compound 138, N-(2-((4-(3-(4-aminotetrahydro-2H-pyran-4-yl)phenyl)thiazol-2-yl)amino)-2-oxoethyl)-1-(methylsulfonyl)-1H-pyrrole-3-carboxamide]", "values": [{"measurement": "IC50", "setting": "[1]", "value": "> 1", "unit": "µM"}, {"measurement": "IC50", "setting": "[2]", "value": "> 1", "unit": "µM"}]}, {"smiles": "CC(C)(O)c1cccc(-c2csc(NC(=O)CNC(=O)c3ccn(S(C)(=O)=O)c3)n2)c1", "note": "[Compound 139, N-(2-((4-(3-(2-hydroxypropan-2-yl)phenyl)thiazol-2-yl)amino)-2-oxoethyl)-1-(methylsulfonyl)-1H-pyrrole-3-carboxamide]", "values": [{"measurement": "IC50", "setting": "[1]", "value": "> 0.1", "unit": "µM"}, {"measurement": "IC50", "setting": "[2]", "value": "> 0.1", "unit": "µM"}]}, {"smiles": "CC(C)(C)c1cccc(-c2csc(NC(=O)CNC(=O)c3ccn(S(C)(=O)=O)c3)n2)c1", "note": "[Compound 140, N-(2-((4-(3-(tert-butyl)phenyl)thiazol-2-yl)amino)-2-oxoethyl)-1-(methylsulfonyl)-1H-pyrrole-3-carboxamide]", "values": [{"measurement": "IC50", "setting": "[1]", "value": "> 0.1", "unit": "µM"}, {"measurement": "IC50", "setting": "[2]", "value": "> 0.1", "unit": "µM"}]}, {"smiles": "CS(=O)(=O)n1ccc(C(=O)NCC(=O)Nc2nc(-c3cccc(C4(O)CCOCC4)c3)cs2)c1", "note": "[Compound 141, N-(2-((4-(3-(4-hydroxytetrahydro-2H-pyran-4-yl)phenyl)thiazol-2-yl)amino)-2-oxoethyl)-1-(methylsulfonyl)-1H-pyrrole-3-carboxamide]", "values": [{"measurement": "IC50", "setting": "[1]", "value": "> 0.1", "unit": "µM"}, {"measurement": "IC50", "setting": "[2]", "value": "> 0.1", "unit": "µM"}]}, {"smiles": "CC(C)(C)n1ccc(C(=O)NCC(=O)Nc2nc(-c3ccc4cncnc4c3)cs2)c1", "note": "[Compound 142]", "values": [{"measurement": "IC50", "setting": "[1]", "value": "> 0.1", "unit": "µM"}, {"measurement": "IC50", "setting": "[2]", "value": "> 0.1", "unit": "µM"}]}, {"smiles": "CN1CCn2nc(-c3cccc(-c4csc(NC(=O)CNC(=O)c5ccn(C(C)(C)C)c5)n4)c3)cc2C1", "note": "[Compound 143, 1-(tert-butyl)-N-(2-((4-(3-(5-methyl-4,5,6,7-tetrahydropyrazolo[1,5-a]pyrazin-2-yl)phenyl)thiazol-2-yl)amino)-2-oxoethyl)-1H-pyrrole-3-carboxamide]", "values": [{"measurement": "IC50", "setting": "[1]", "value": "> 0.1", "unit": "µM"}, {"measurement": "IC50", "setting": "[2]", "value": "> 0.1", "unit": "µM"}]}, {"smiles": "Cn1ccc(-c2cccc(-c3csc(NC(=O)CNC(=O)c4ccn(C5(C)COC5)c4)n3)c2)n1", "note": "[Compound 144]", "values": [{"measurement": "IC50", "setting": "[1]", "value": "> 0.01", "unit": "µM"}, {"measurement": "IC50", "setting": "[2]", "value": "> 0.01", "unit": "µM"}]}, {"smiles": "Cn1ccc(-c2cccc(-c3csc(NC(=O)CNC(=O)c4ccn(C(C)(C)C)c4)n3)n2)n1", "note": "[Compound 145]", "values": [{"measurement": "IC50", "setting": "[1]", "value": "> 0.01", "unit": "µM"}, {"measurement": "IC50", "setting": "[2]", "value": "> 0.01", "unit": "µM"}]}, {"smiles": "CS(=O)(=O)n1ccc(C(=O)NCC(=O)Nc2nc(-c3c[nH]c(-c4ccncc4)n3)cs2)c1", "note": "[Compound 146, 1-(methylsulfonyl)-N-(2-oxo-2-((4-(2-(pyridin-4-yl)-1H-imidazol-4-yl)thiazol-2-yl)amino)ethyl)-1H-pyrrole-3-carboxamide]", "values": [{"measurement": "IC50", "setting": "[1]", "value": "> 1", "unit": "µM"}, {"measurement": "IC50", "setting": "[2]", "value": "> 1", "unit": "µM"}]}, {"smiles": "CS(=O)(=O)n1ccc(C(=O)NCC(=O)Nc2nc(-c3cccc(OCc4ccncc4)n3)cs2)c1", "note": "[Compound 147]", "values": [{"measurement": "IC50", "setting": "[1]", "value": "< 0.01", "unit": "µM"}, {"measurement": "IC50", "setting": "[2]", "value": "> 0.01", "unit": "µM"}]}]}
